Structures can show the parent of a compound that is named as a salt.

The test system of this assay is HCV genotype 1b strain Con1 replicon (ET replicon line, Huh7 cells). Description: HCV ET replicon luciferase assay. The format is cell-based. To be noted: Hepatitis C virus, Huh-7; ET replicon line (Huh7 cells, HCV genotype 1b Con1 replicon), luciferase read-out, 72 hours; compounds in free or salt form. The protocol:
Compounds of the current invention are believed useful in the treatment and/or prophylaxis of conditions and diseases associated with HcV infection. Activity mediated through HCV was determined using an ET replicon line.
The Materials used include a Medium comprised of DMEM (1× liquid, high glucose); Invitrogen cat# 11965-092; 100×Penicillin/Streptomycin solution (10,000 Units/mL); Invitrogen cat# 15140-122; 100×Non-essential amino acid solution (10 mM); Invitrogen cat# 11140-050; Fetal bovine serum; JRH Biosciences cat# 12107-500M; Geneticin (50 mg/mL); Invitrogen cat# 10131-035
The Luciferase assay reagents include Steady-Glo Luciferase assay system, cat# E2550 (Promega)
The ET replicon line (see Lohmann et al. (1999), Replication of subgenomic hepatitis C virus RNAs in a hepatoma cell line. Science 285:110-113; Krieger et al. (2001), Enhancement of hepatitis C virus RNA replication by cell culture-adaptive mutations. J. Virol. 75: 4614-4624; and Vrolijk et al. (2003), A replicon-based bioassay for the measurement of interferons in patients with chronic hepatitis C. J. Virol. Meth. 110: 201-209, each herein incorporated by reference with regard to the ET replicon line), includes Huh7 cells stably transfected with HCV genotype 1b strain Con1 replicon. This replicon expresses the firefly luciferase, has the coding region for ubiquitin inserted upstream of the neomycin gene, and carries three cell culture-adaptive mutations that enhance RNA replication cooperatively (E1202G, T1280I, and S2197P). The ET cell line was obtained under license from: ReBLikon GmbH, Nach dem alten Schloss 22, 55239 Gau-Odernheim, Germany.
Cells are maintained at 37° C., 5% CO2, in DMEM with 10% FCS, 1× penicillin/streptomycin, 1× non-essential amino acids, 0.5 mg/mL Geneticin. For passage, cells are washed once with PBS, and incubated at 37° C. with sufficient trypsin (0.05%)/versene to cover the monolayer. Once detached from the flask, cells are mixed with several mLs of DMEM+10% FBS to inactivate the trypsin, then diluted appropriately (usually 1 in 5 or 1 in 10) with sufficient medium to pass to a new flask. For a T225 flask, 40-50 mLs total volume of cells+medium is typically used. To prevent the density dependent drop in replicon RNA, the ET cell line is maintained at sub-confluent (60-80%) levels.
Compounds are diluted in DMSO across the first 10 wells of a Costar V-bottom 96-well plate using a Biomek 2000 Workstation (Beckman-Coulter), with 0.5 log10 dilution intervals. DMSO only is added to the last two columns of the plate. The top concentration of drug in this master plate is typically 2.5 mM. A 1/5 dilution of the compounds is made by adding DMEM+10% FBS with a multichannel pipettor, giving a top concentration of 500 μM. 5 μL of diluted compounds is transferred into black Costar flat bottom 96-well daughter plates using a RapidPlate workstation (Zymark).
Cells are grown to approximately 80% confluency and trypsinised as described above. Cells are counted in a Levy Hemocytometer and diluted to 20,000 cells/ml in DMEM containing 10% FBS, 1× penicillin/streptomycin, 1×NEAAs. (Note: Geneticin is omitted for the assay).
245 μL cell suspension is added to the first 11 columns of the daughter plates prepared as above using a Multidrop dispenser (Titertek). Thus, 5,000 cells are added per well, and the final top concentration of each compound is 10 μM. The twelfth column of each plate is used to generate background readings for the assay. […]
(In general: In antiviral work, replicon cells carry a viral genome segment that copies itself.)
For the molecule `Brc1ccc2[nH]c3c(c2c1)CCCCC3Nc1ncccn1` (centres unmarked) [Example 38, 2-Bromo-N-pyrimidin-2-yl-5,6,7,8,9,10-hexahydrocyclohepta[b]indol-6-amine], the IC50 was determined as 39 nM.
For `Brc1ccc2[nH]c3c(c2c1)CCCC3Nc1ccccn1` (centres unmarked) [Example 27, 6-Bromo-N-pyridin-2-yl-2,3,4,9-tetrahydro-1H-carbazol-1-amine Hydrochloride], the half-maximal inhibitory concentration (IC50) came out at 8 nM.
Turning to `Clc1ccc2[nH]c3c(c2c1)CCCC3Nc1ccccc1` (centres unmarked) [Example 14, 6-Chloro-N-phenyl-2,3,4,9-tetrahydro-1H-carbazol-1-amine], the half-inhibitory concentration (IC50) turned out to be 5 nM.
For `Brc1ccc2[nH]c3c(c2c1)CCCC3Nc1ccccc1` (centres unmarked) [Example 13, 6-Bromo-N-Phenyl-2,3,4,9-tetrahydro-1H-carbazol-1-amine], the half-inhibitory concentration (IC50) came out at 10 nM.
Turning to `Clc1ccc2[nH]c3c(c2c1)CCCC3Nc1ncccn1` (centres unmarked) [Example 23, 6-Chloro-N-pyrimidin-2-yl-2,3,4,9-tetrahydro-1H-carbazol-1-amine], the IC50 turned out to be 52 nM.

One may read the IC50 as the concentration that inhibits the measured activity by half.

Source of the values: patent US20090156621A1, “HCV INHIBITORS” (priority 2004, published 2009).
